Source: patent publication EP0546661A1, “Pyrimidine derivatives, method for preparation thereof and pharmaceutical composition having said derivatives as active elements” (JAPAN ENERGY CORPORATION, priority 1991, dated 1993)
pIC50: −log10 of the molar value. Like-named read-outs stand apart in the source and are kept apart here.

Key:
male SD rats [1] = experiment: Carageenin induced paw edema; format: in vivo; conditions: oral, 1 hour before carageenin, paw volume 3 hours after carageenin, suppression of edema forming rate
Description: The test compounds were orally administered to male SD rats, 10 per a group, which were fasted for 24 hours prior to the administration, and after one hour, 0.1 ml of 1% λ-carageenin (Picnin A, Zushi Chemical Co., Ltd.) in saline was injected subcutaneously into the right hind paw. The paw volumes were measured plethysmographically at before and 3 hours after the carageenin administration. Defining the paw volume before the injection of the λ-carageenin as the basal volume, the edema forming rates were calculated by the following equation. Edma Forming Rate(%) =((Paw volume after carageenin injection) - (Paw volume before carageenin injection))/(Paw volume before carageenin injection)x 100 [formula]
Compounds shown in the examples 1 -3 and 5 were tested and diclofenac was used as controls.

male SD rats [2] = experiment: Ulcer forming activity; format: in vivo; conditions: oral 10 mg/kg once daily for 5 days; 10 rats per group; stomach ulcers observed after 24 hours fasting
Description: The test compounds were orally administered to male SD rats, 10 per a group, at the dosage of 10 mg/kg, once daily for 5 days. After the final administration, rats were fasted for 24 hours and killed by blood releasing under ether anesthesia. The stomachs were taken out and the presence of ulcers were observed.
The same experiments were done with control compounds, E-5110 [Arznein Forsch. Drug Res., 37, 930 (1987), ibid, 37, 936 (1987)] abd diclofenac.

[3] = system: bronchis of Hartle guinea pigs; experiment: Dilating action of bronchia by Schultz-dale reaction
Description: The specimens were prepared by removing the bronchis of Hartle guinea pigs after sensitizing them with egg white albumin and terminating them by blood releasing under ether anesthesia. Each specimen was hanged down in the Magnus vessel filled with Tyrode's solution (saturated with gas composed of 95% oxygen and 5% carbon dioxide by bubbling at pH 7.4 and at […]). A tension of 1g was loaded to the specimen. After the tension became constant, histamine was added to the final concentration of 2 x 10⁻⁷ g/ml to cause the specimen to contract. The specimen was taken out from the vessel, washed thoroughly and hanged down in a different Magnus vessel filled with egg white albumin, of which final concentration was 1 x 10⁻⁵ g/ml, to cause the specimen to contract. […] As a control, theophylline in 0.1% dimethylsulphoxide aqueous solution was used. The efficacy of the test compounds was described by the suppression rate, in percentage, calculated from the contraction value obtained after the addition of the test compound, defining the contraction value caused by the egg white albumin before the addition of the test compound as 100 %.

[4] = Scavenging activity of hydroxy radicals (linolenic acid peroxidation, absorbance at 234 nm); format: biochemical; conditions: test compound concentration 10 µM
Description: Scavenging activity of hydroxy radicals were confirmed according to the method of Kharasch et al. [J. Biol. Chem., 260, 106452 (1985)]. The method is as follows. The reactions were started by adding 80 µM iron chloride (II) to the reaction mixture containing test compounds, 30 mM sodium chloride, 1.0 mM linolenic acid, 0.08% rubrol and 100 µM hydrogen peroxide in 1% N,N-dimethylformamide aqueous solution. The time course of peroxidation reaction caused by the action of hydroxy radicals to linolenic acid were monitored by measuring the change of absorbance at 234 nm reflecting the generation of conjugate double bond, and thus the disappearance of the hydroxy radicals by test compounds was measured. The reaction suppression rates of test compounds at their concentration of 10 µM were calculated and the values are listed in Table 5 below.

SD rats = experiment: Repeated administration toxicity in SD rats; format: in vivo; conditions: 500 mg/kg, repeatedly for 2 weeks
From the text: Theophylline is known to have high toxicity and its LD₅₀ is about […] in rat. […]

male mongolian gerbils = experiment: Brain edema (carotid artery occlusion and re-perfusion); format: in vivo; conditions: 2 mg/kg intraperitoneally 15 minutes before occlusion; 3 hours ischemia, 3 hours re-perfusion; 6 per group
Description: The total left carotid artery of male mongolian gerbils were separated from surrounding tissues and exposed under the Halosen anesthesia, and when awakened from the anesthesia, the total left carotid arteries were occuled by a aneurysm forming clip. […] The next day, the total left caroted artery of the selected animals, 6 per a group, were re-exposed under the Halosen anesthesia, and when these animals were awakened, the test compounds were administered intraperitoneally (2 mg/kg), followed by occluding the left total carotid artery by a aneurysm forming clip 15 minutes after the administration. After 3 hours ischemla, the clips were removed to re-perfusion. The animals were guillotined at 3 hours after the re-perfusion, immediately followed by removing out the brains, separated their left and right parts at its median line and measured each brain weights. The brains were dried in the dry heat sterilizer at 100°C for 3 days, and measured each brain weights.
Here, for the comparison, experiments with only surgical operations and stitchings were done as a operation only group, and experiments with only surgical operations, clip blockigs and stitchings and without the administration of the test compounds were done as a control group.

rat = conditions: cited from earlier work

Row | SMILES | Ulcer Cases (male SD rats [2]) | Suppression Rate (%) (male SD rats [1]; dose 2 mg/kg) | pIC50 ([3]; Cavia porcellus) | Suppression Rate (%) [4] [%] | also measured
1 | O=C(O)Cc1ccccc1Nc1c(Cl)cccc1Cl [Diclofenac, reference compound] | 2/10 | – | – | – | Suppression Rate (%) (male SD rats [1]; dose 10 mg/kg): 51%
2 | CN1C(=O)C(=Cc2cc(C(C)(C)C)c(O)c(C(C)(C)C)c2)C(=O)N(c2ccccc2)C1=O [Example 1, 1-methyl-3-phenyl-5-(3,5-di-tert-butyl-4-hydroxybenzylidene)-pyrimidine-2,4,6-trione] | 0/10 | 48 | 4.30 | 59 | abnormal symptoms (SD rats): no abnormal symptoms were observed
3 | CCN1C(=O)C(=Cc2cc(C(C)(C)C)c(O)c(C(C)(C)C)c2)C(=O)N(CC)C1=O [Example 2, 1,3-diethyl-5-(3,5-di-tert-butyl-4-hydroxybenzylidene)-pyrimidine-2,4,6-trione] | – | 32 | 4.17 | 15 | –
4 | CC(C)(C)c1cc(C=C2C(=O)N(C3CCCCC3)C(=O)N(C3CCCCC3)C2=O)cc(C(C)(C)C)c1O [Example 3, 1,3-dicyclohexyl-5-(3,5-di-tert-butyl-4-hydroxybenzylidene)-pyrimidine-2,4,6-trione] | 1/10 | 11 | 4.24 | – | –
5 | CCCCN1C(=O)NC(=O)C(=Cc2cc(C(C)(C)C)c(O)c(C(C)(C)C)c2)C1=O [Example 4, 1-butyl-5-(3,5-di-tert-butyl-4-hydroxybenzylidene)-pyrimidine-2,4,6-trione] | 0/10 | – | 4.37 | 18 | –
6 | CC(C)(C)c1cc(C=C2C(=O)NC(=O)N(C3CCCCC3)C2=O)cc(C(C)(C)C)c1O [Example 5, 1-cyclohexyl-5-(3,5-di-tert-butyl-4-hydroxybenzylidene)-pyrimidine-2,4,6-trione] | 0/10 | 24 | 4.23 | 31 | –
7 | CC(C)(C)c1cc(C=C2C(=O)NC(=O)N(c3ccccc3)C2=O)cc(C(C)(C)C)c1O [Example 6, 1-phenyl-5-(3,5-di-tert-butyl-4-hydroxybeniylidene)-pyrimidine-2,4,6-trione] | 0/10 | – | – | 25 | pIC50 ([3]; suppression of egg white albumin (1 x 10⁻⁵ g/ml) induced contraction of sensitized guinea pig bronchi, read-out: IC50): 4.36
8 | Cc1ccc(N2C(=O)C(=Cc3cc(C(C)(C)C)c(O)c(C(C)(C)C)c3)C(=O)N(c3ccc(C)cc3)C2=O)cc1 [Example 7, 1,3-di-p-tolyl-5-(3,5-di-tert-butyl-4-hydroxybenzylidene)-pyrimidine-2,4,6-trione] | – | – | 4.41 | 60 | water contents, Normal Side (male mongolian gerbils): 79.64 ± 0.09; water contents, Occlusion Side (male mongolian gerbils): 79.94 ± 0.33
9 | CON1CC/C(=C\c2cc(C(C)(C)C)c(O)c(C(C)(C)C)c2)C1=O [Example E-5110, reference compound] | 3/10 | – | – | – | –
10 | Cn1c(=O)c2[nH]cnc2n(C)c1=O [Theophylline, reference compound] | – | – | – | – | pIC50 ([3]; Cavia porcellus, suppression of egg white albumin (1 x 10⁻⁵ g/ml) induced contraction of sensitized guinea pig bronchi, read-out: IC50): 4.46; LD₅₀ (rat): about 300 mixing
